What was measured:
[1] = test system: Escherichia coli; experiment: Antibacterial activity against Escherichia coli at 10 mg/ml by cup-plate technique; format: functional; details: read-out: DIZ
[2] = test system: Bacillus subtilis; experiment: Antibacterial activity against Bacillus subtilis at 10 mg/ml by cup-plate technique; format: functional; details: read-out: DIZ
[3] = test system: Staphylococcus aureus; experiment: Antibacterial activity against Staphylococcus aureus at 10 mg/ml by cup-plate technique; format: functional; details: read-out: DIZ
[4] = test system: Rattus norvegicus; experiment: Gastrointestinal toxicity in Rattus norvegicus albino (rat) assessed as incidence of gastric ulceration at 0.9 mg/100 g body weight, po qd; format: organism-based, Stomach; details: in vivo
[5] = test system: Rattus norvegicus; experiment: Gastrointestinal toxicity in Rattus norvegicus albino (rat) assessed as ulcer index at 0.9 mg/100 g body weight, po qd; format: organism-based; details: in vivo
[6] = test system: Rattus norvegicus; experiment: Anti-inflammatory activity in Rattus norvegicus albino (rat) assessed as reduction of carrageenan-induced paw edema thickness at 0.9 mg/100 g body weight, ip administered 1 hr before carrageenan-challenge measured after 4 hr (reference value: 0.88 +/- 0.03 mm); format: functional
[7] = test system: Rattus norvegicus; experiment: Anti-inflammatory activity in Rattus norvegicus albino (rat) assessed as reduction of carrageenan-induced paw edema thickness at 0.9 mg/100 g body weight, ip administered 1 hr before carrageenan-challenge measured after 3 hr (reference value: 0.88 +/- 0.03 mm); format: functional
[8] = test system: Rattus norvegicus; experiment: Anti-inflammatory activity in Rattus norvegicus albino (rat) assessed as reduction of carrageenan-induced paw edema thickness at 0.9 mg/100 g body weight, ip administered 1 hr before carrageenan-challenge measured after 2 hr (reference value: 0.88 +/- 0.03 mm); format: functional
[9] = test system: Rattus norvegicus; experiment: Anti-inflammatory activity in Rattus norvegicus albino (rat) assessed as reduction of carrageenan-induced paw edema thickness at 0.9 mg/100 g body weight, ip administered 1 hr before carrageenan-challenge measured after 1 hr (reference value: 0.77 +/- 0.02 mm); format: functional

SMILES	zone of inhibition at 10000 µg/mL [1]	zone of inhibition at 10000 µg/mL [2]	zone of inhibition at 10000 µg/mL [3]	Activity [4]	UI [5]	Activity [6]	Activity [7]	Activity [8]	Activity [9]
O=C1NC2CCCCC2N=C1/C=N/Nc1ccccc1 (stereo not drawn)	4 mm	8 mm	6 mm						
O=c1[nH]c2ccccc2nc1Cc1nnc(S)o1		10 mm	11 mm	80%	240	0.52 mm	0.6 mm	0.52 mm	0.57 mm
Nn1c(S)nnc1Cc1nc2ccccc2[nH]c1=O				0%	0	0.62 mm	0.6 mm	0.62 mm	0.67 mm
CCn1c(S)nnc1Cc1nc2ccccc2[nH]c1=O				0%	0	0.67 mm	0.52 mm	0.5 mm	0.5 mm
O=C(Cc1nc2ccccc2[nH]c1=O)Nn1c(-c2ccccc2)csc1=S				80%	240	0.52 mm	0.55 mm	0.55 mm	0.57 mm
O=C(CC1=NC2CCCCC2NC1=O)NNC(=S)Nc1ccccc1 (stereo not drawn)	12 mm	18 mm	16 mm						
O=c1[nH]c2ccccc2nc1Cc1nnc(S)n1-c1ccccc1				0%	0	0.47 mm	0.52 mm	0.55 mm	0.55 mm
O=C(CC1=NC2CCCCC2NC1=O)NN1C(=O)c2ccccc2C1=O (stereo not drawn)	6 mm								
Cc1ccc(N/N=C/C2=NC3CCCCC3NC2=O)cc1 (stereo not drawn)	5 mm	7 mm	6 mm						
O=C(O)c1cn(C2CC2)c2cc(N3CCNCC3)c(F)cc2c1=O [CIPROFLOXACIN]	12 mm	19 mm	17 mm						
C=CCNC(=S)NNC(=O)Cc1nc2ccccc2[nH]c1=O	7 mm	8 mm	9 mm						
Cc1ccc(-c2csc(=S)n2NC(=O)Cc2nc3ccccc3[nH]c2=O)cc1				0%	0	0.55 mm	0.6 mm	0.67 mm	0.7 mm
C=CCNC(=S)NNC(=O)CC1=NC2CCCCC2NC1=O (stereo not drawn)	9 mm	11 mm	12 mm						
O=C1NC2CCCCC2N=C1/C=N/Nc1ccc(Br)cc1 (stereo not drawn)	8 mm	11 mm	13 mm						
O=C1NC2CCCCC2N=C1/C=N/Nc1ccc(F)cc1 (stereo not drawn)	7 mm	17 mm	16 mm						
Cc1ccc(-c2cc(C(F)(F)F)nn2-c2ccc(S(N)(=O)=O)cc2)cc1 [CELECOXIB]				0%	0	0.5 mm	0.45 mm	0.42 mm	0.45 mm
O=C1NC2CCCCC2N=C1/C=N/Nc1ccc(Cl)cc1 (stereo not drawn)	6 mm	15 mm	16 mm						
COc1ccc2c(c1)c(CC(=O)O)c(C)n2C(=O)c1ccc(Cl)cc1 [INDOMETHACIN]				100%	500				
O=C(Cc1nc2ccccc2[nH]c1=O)NNC(=S)Nc1ccccc1	8 mm	9 mm	10 mm						
O=C(Cc1nc2ccccc2[nH]c1=O)Nn1c(-c2ccc(Cl)cc2)csc1=S				0%	0	0.45 mm	0.47 mm	0.5 mm	0.55 mm

Source: ChEMBL document CHEMBL3045991, “Synthesis of new 2(1H)-quinoxalinone derivatives for antimicrobial and antiinflammatory evaluation” (Med Chem Res, 2009)
